How the values were obtained:
chimeric α7-GluClβR [1] = target: chimeric α7-GluClβR (Gallus gallus / Caenorhabditis elegans, UniProt P22770, M226I/T225I); assay: ACh dose-response, whole-cell patch clamp in CHO cells expressing the chimeric receptor; format: cell-based, chick nAChR α7 / C. elegans GluClβ; conditions: −60 mV
chimeric α7-GluClβR [2] = assay: IVM added after activation by ACh: kinetics and extent of current decline (whole-cell patch clamp); format: cell-based, chick nAChR α7 / C. elegans GluClβ
Protocol: Following a further wash (for a minute), the same cell was challenged again with a 5-μM-IVM solution (in 0.01% DMSO; red bar, arrow and trace). Recordings were performed at −60 mV. (B) Time constant of current decline (τd). Values of τd were determined by exponential fits to the declining phase of the currents using Eq. 3. […] Error bars correspond to SEM of N = 6 and N = 5 cells for recordings at −60 mV and −20 mV, respectively. Paired, two-tailed Student’s t-tests indicate that for not significant (“ns”) P > 0.3, and ** 0.001 < P < 0.005.
Figure 8 The inhibition of ACh-elicited currents by addition of IVM is irreversible. […] (B) Representative currents for the same experiment as in A, but with the exception of IVM (0.5 μM) addition after the ACh-elicited current reached to its peak (IP1). Inset, magnification of the indicated segment of the current trace. In both panels A and B, black bars above the current traces indicate ACh or IVM applications. […] Error bars correspond to SEM. Unpaired, two-tailed Student’s t-tests indicate *** P < 0.0001.
The declining phase of the currents was fitted with an exponential time course to give the time constant of current decline by using equation 3, […]
I is the current, IP is the peak of the current, IS is the steady state current, t is the time, and τ is the time constant of current decline. […]
Supplementary Materials and Methods
The structural mo del of the chi meric α7-GluClβR was built based on th e methodologies published previously1,2, and the sequence of the chimeric subunit is presented in […]
DNA construct and preparation of cells for electrophysiological experiments The cDNA encoding the α7-GluClβ chimeric subunit was generated as described previously3, and was cloned into a pcDNA3.1 vector.
Chinese hamster ovary cells (CHO-K1, ATCC via Biological Industries Israel, Beit Haemek Ltd.) were cultured as performed previously2 in Dulbecco 's Modified E agle Med iu m (DMEM) containing 10% fetal calf serum (Biological Industries Israel Beit Haemek Ltd.), 2 mM glutamax, 100 Units/ml penicillin G and 100 μg/ml streptomycin, and grown in 5% CO2 at 37°C under 90-95% hu midity . CHO cells were seeded on glass coverslips (13-mm diameter) placed in a 24-multiwell plate. For the expression of the α7-GluClβR, cells were transiently transfected with the pcDNA3.1 plasmid containing the receptor’s ORF (200-600 ng per well) using transit-LT1 transfection reagent (Mirus, USA), according to the manufacturer’s protocol. pIRES-CD8 plas mid (200 ng per well) was also added to enable visualization of the ex pressing cells by beads coated with anti-CD8 antibodies (Invitrogen). For the expression of GluClβ ho mo mers, we used the pcDNA3.1 plas mid containing the GluClβ-subunit ORF (600-1000 ng per well), pIRES-CD8 plas mid (200 ng per well) and th e X-tremeGENE HP DNA Transfection Reagent (Roche Life Science). Recordings were performed 48-72 hours following transfection.
Whole-cell patch clamp recordings
Recordings were performed in the aforementioned CHO cells, as previously described1,2. Whole-cell patch clamp experiments were performed with normal external solution (NES) contained (in millimolar): 140 NaCl, 2.8 KCl, 2 CaCl2, 2 MgCl2, 10 glucose and 10 HEPES, adjusted to pH 7.35 with NaOH (310 mOsM). The pipette solution contained […]
(in millimolar): 130 KCl, 4 MgCl2, 4 Na2ATP, 1 EGTA and 10 HEPES, adjusted to pH 7.35 with KOH (290 mOsM). The osmolarity of these solutions was maintained by adding sucrose.
The electrode resistance was 6-10 MΩ when filled with the pipette solution. External solutions were applied onto the cell by using the VC-77SP fast-step system (Warner Instruments, CT, USA) combined with N2 pressure of 3-4 psi to produce laminar flow of the external solution onto the patched cell. All measurements were performed at 25 °C. The currents w ere measured with an Axopatch 200B patch-clamp amplifier (Molecular Devices, Sunnyvale, CA) and a Digidata 1440A interface (Molecular Devices). […]

homomeric GluClβR [3] = test system: T1, homomeric GluClβR; assay: Effect of IVM on Glu-elicited currents of homomeric GluClβ receptors in CHO cells (whole-cell patch clamp); format: cell-based, C. elegans; conditions: 100 mM Glu, four cells, mean ± SEM
T1 construct: homomeric receptors assembled from the full-length C. elegans GluClβ subunit; expressed in transfected cells; host or cells: CHO-K1 cells, transient transfection, pcDNA3.1
Protocol: Figure 9 Effect of IVM on homomeric GluClβ receptors. (A) Representative current traces obtained by the indicated application protocol. Glu (100 mM) was applied for either 350 ms to obtain peak IP0 at −60 mV, or 600 ms to obtain peaks IP1, IP2 and IP3 at +60 mV. Note that the responses at both membrane voltages, −60 and +60 mV, start to desensitize appreciably before the end of Glu application. IVM (2 μM) was applied for 10 seconds. Asterisk indicates a 25-sec-long wash between the second and third Glu applications. (B) Current-voltage (I/V) relations obtained in a different cell than in A upon the application of Glu (100 mM) over a voltage ramp lasting 200 ms. […] Current ratios were extracted from experiments performed as shown in (A). Mean ± SEM of four cells are presented. Paired, two-tailed Student’s t-tests indicate that **0.001 < P < 0.01 and ***P < 0.0002.
Supplementary Information
Trapping of ivermectin by a pentameric ligand-gated ion channel upon open-to-cl ose d i someri zati on N. Degani-Katzav, M. Klein, M. Har-Even, R. Gortler, R. Tobi and Y. Paas*
Supplementary Materials and Methods […]
The electrode resistance was 6-10 MΩ when filled with the pipette solution. […] The currents w ere measured with an Axopatch 200B patch-clamp amplifier (Molecular Devices, Sunnyvale, CA) and a Digidata 1440A interface (Molecular Devices). […]

homomeric GluClβR [4] = test system: homomeric GluClβR; set-up: method as in PMID 7935817; conditions: Xenopus oocytes; read-out: Glu EC50; cited from earlier work

chimeric α7-GluClβR (Gallus gallus / Caenorhabditis elegans, UniProt P22770, M226I/T225I), sequence (P22770 24-230 T225I/M226I): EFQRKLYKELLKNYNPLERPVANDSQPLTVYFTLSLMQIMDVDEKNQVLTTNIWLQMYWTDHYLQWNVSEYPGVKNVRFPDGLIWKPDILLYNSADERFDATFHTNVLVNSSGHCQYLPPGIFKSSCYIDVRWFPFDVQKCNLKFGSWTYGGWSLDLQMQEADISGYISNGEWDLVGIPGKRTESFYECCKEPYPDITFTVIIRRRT
chimeric α7-GluClβR (Gallus gallus / Caenorhabditis elegans, UniProt P22770, M226I/T225I), sequence (Q17328 245-434, further chain): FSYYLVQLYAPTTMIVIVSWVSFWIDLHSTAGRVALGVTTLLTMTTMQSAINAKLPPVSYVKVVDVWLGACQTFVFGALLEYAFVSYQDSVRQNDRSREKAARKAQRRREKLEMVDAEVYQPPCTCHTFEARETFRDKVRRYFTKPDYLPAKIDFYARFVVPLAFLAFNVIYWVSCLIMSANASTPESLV

| Compound | Hill coefficient (ACh dose-response) (chimeric α7-GluClβR [1]) | current remaining at end of initial application, percent IS/IP1 (chimeric α7-GluClβR [2]; 30 μM ACh alone for 9.6 sec, N = 10) [%] | τd1, time constant of current decline (chimeric α7-GluClβR [2]; 30 μM ACh alone, 9.6 sec, N = 10) [ms] | current remaining at end of application, percent of the peak amplitude (chimeric α7-GluClβR [2]; 350 μM ACh alone for 5.5 sec, N = 5) [%] | time between the start of application and the onset of effect (chimeric α7-GluClβR [2]; six experiments as in Fig. 5A, 350 μM ACh, 5 μM IVM) [milliseconds] | I+60mV/I−60mV of Glu-elicited responses (homomeric GluClβR [3]) | EC50 (homomeric GluClβR [4]) [µM] |
| --- | --- | --- | --- | --- | --- | --- | --- |
| CC(=O)OCC[N+](C)(C)C [ACh, acetylcholine] | 2.55 ± 0.3 | 35 ± 4 | 4268 ± 224 | 31 ± 8.6 | 67 ± 7 |  |  |
| N[C@@H](CCC(=O)O)C(=O)O [Glu, glutamate] |  |  |  |  |  | 2.8 ± 0.2 | 380 |

— PMC5317004 (Scientific Reports, 2017)
